Earlier results in US20060235005A1, “Use of phosphodiesterase 5 (PDE5) inhibitors in the treatment of schizophrenia” (Oak Labs, Corp., priority 2005, published 2006).
Read-outs that look alike come from different tables or passages of the source. One block for each compound: values may come before it.

Experiments:
anesthetized dogs = conditions: intravenous 1-300 μg kg-1, anesthetized dogs
rats [1] = conditions: oral 0.3-1.0 mg kg-1, rats
[2] = test system: patients with schizophrenia; conditions: compared with haloperidol
mice [3] = conditions: 2, 4, & 8 mg/kg
mice [4] = conditions: 3 mg/kg, at 48 hours
rats [5] = conditions: 3 mg/kg and 10 mg/kg p.o., at 24 hours
rats [6] = test system: rats
healthy young men = conditions: 100 mg
[7] = test system: men with cardiovascular disease
[8] = test system: women affected by arousal disorders
[9] = test system: male schizophrenia patients
cortical cGMP levels = conditions: subchronic administration, rats
hyperammonemic rats = conditions: chronic oral treatment for 28 days
[10] = test system: middle cerebral artery occlusion; conditions: 2-5 mg/kg daily for seven days, vs vehicle
schizophrenia patients = conditions: 8-week trial
[11] = single oral dose of 10, 20 and 40 mg
[12] = in vivo
[13] = test system: men with erectile dysfunction; conditions: phase III, including patients with cardiovascular diseases, vs placebo
healthy subjects = conditions: single 20-mg dose

Structure (SMILES): CCCOc1ccc(S(=O)(=O)NCCC2CCCN2C)cc1-c1nc2c(CCC)nn(C)c2c(=O)[nH]1 (centres unmarked) [DA-8159]
intracavernosal pressure (anesthetized dogs): potentiated an increase in intracavernosal pressure in a dose-related manner
erectogenic activity (rats [1]): erectogenic activity

Structure (SMILES): Cc1nc2n(c(=O)c1CCN1CCC(c3noc4cc(F)ccc34)CC1)CCCC2 [risperidone]
reduction in relapse rate [2]: 43%

Structure (SMILES): CCCc1nn(C)c2c(=O)[nH]c(-c3cc(S(=O)(=O)N4CCN(C)CC4)ccc3OCC)nc12 [sildenafil]
acquisition of maze learning (mice [3]): dose-dependently improved acquisition
retention of passive avoidance task (mice [4]): improved retention
retention of object recognition task (rats [5]): significantly improved retention
effect on behavioral effects of dopamine agonists (rats [6]; 10 mg/kg): antagonized behavioral effects
effect on behavioral effects of dopamine agonists (rats [6]; single dose 1 mg/kg): enhanced behavioral effects
actual performance (attention / recognition) (healthy young men): did not significantly improve
event-related brain potentials (ERPs) patterns (healthy young men): significantly affected
men with improved erectile function ([7]; men with ischemic heart disease): up to 70%
synergistic effect on blood pressure with antihypertensive agents ([7]; patients not taking organic nitrates, ACE inhibitors, adrenoceptor blockers, calcium channel blockers, diuretics): does not have a synergistic effect on blood pressure
sexual performance [8]: improve sexual performance
terminal half-life (in vivo): 3 to 5 h
absolute bioavailability (oral administration): 40%
time to peak plasma concentration (Tmax) (oral, fasting state): 0.5 to 2 h
safety and efficacy for erectile dysfunction [9]: safe and effective
cortical cGMP levels (cortical cGMP levels): increase cortical cGMP levels
cGMP levels in brains (hyperammonemic rats): normalized cGMP levels
performance on learning tasks (hyperammonemic rats): restored performance on learning tasks
functional recovery (foot fault test and adhesive removal test) [10]: significantly greater functional recovery
cellular proliferation in the subventricular zone and dentate gyrus ([10]; bromodeoxyuridine labeling): greater cellular proliferation

Structure (SMILES): N[C@@H]1CONC1=O [D-cycloserine]
tolerance for memory effects (animal models; after two weeks of daily dosing): tolerance for memory effects develops
learning and memory (animal models; single dose administration): improves learning and memory
cognitive deficits (schizophrenia patients): failed to improve cognitive deficits

Tmax [11]: 0.7 to 0.9 h
Structure (SMILES): CCCc1nc(C)c2c(=O)[nH]c(-c3cc(S(=O)(=O)N4CCN(CC)CC4)ccc3OCC)nn12 [vardenafil]

maximum Tmax [12]: 2 h
Structure (SMILES): CN1CC(=O)N2[C@H](c3ccc4c(c3)OCO4)c3[nH]c4ccccc4c3C[C@@H]2C1=O [tadalafil]
incidence of adverse events [13]: no different from that in placebo-treated patients
change in heart rate, standing systolic or diastolic blood pressure (healthy subjects): no significant change
